Measurements published in the NIST ThermoML archive (doi:10.1021/je200350a).

Test: xn = mol fraction of the nth substance listed
Settings: 101 kPa, Liquid; for viscosity: Capillary tube (Ostwald / Ubbelohde) method

CCCCBr [1-bromobutane] + O=[N+]([O-])c1ccccc1
Settings	mass density, 293.15 K [kg/m3]	mass density, 298.15 K [kg/m3]	mass density, 303.15 K [kg/m3]	mass density, 308.15 K [kg/m3]	viscosity, 293.15 K [mPa·s]	viscosity, 298.15 K [mPa·s]	viscosity, 303.15 K [mPa·s]	viscosity, 308.15 K [mPa·s]
x2 = 0.123	1270.9	1263.5	1256.5	1249	0.7256	0.6851	0.6486	0.615
x2 = 0.2445	1262.8	1256.6	1249.8	1242.4	0.8243	0.7761	0.7321	0.692
x2 = 0.3645	1253.7	1247.1	1240.8	1234.3	0.9397	0.8811	0.828	0.7802
x2 = 0.424	1249.7	1244	1238	1230.7	0.9936	0.9308	0.8743	0.8225
x2 = 0.542	1240.8	1234.4	1228.2	1222.2	1.131	1.055	0.986	0.925
x2 = 0.6585	1229.4	1223.8	1218.5	1212.4	1.281	1.19	1.109	1.037
x2 = 0.7737	1220.6	1214.7	1209.9	1205.1	1.477	1.364	1.266	1.18
x2 = 0.8875	1211.5	1206.6	1201.6	1196	1.703	1.566	1.447	1.34
x2 = 0.9439	1206.7	1201.6	1196.5	1191.2	1.835	1.682	1.548	1.43

O=[N+]([O-])c1ccccc1 [nitrobenzene] + CC1CCCCC1
Settings	mass density, 293.15 K [kg/m3]	mass density, 298.15 K [kg/m3]	mass density, 303.15 K [kg/m3]	mass density, 308.15 K [kg/m3]	viscosity, 293.15 K [mPa·s]	viscosity, 298.15 K [mPa·s]	viscosity, 303.15 K [mPa·s]	viscosity, 308.15 K [mPa·s]
x1 = 0.1422	820.2	816.2	812.4	808.2	0.785	0.735	0.6901	0.649
x1 = 0.2103	845.2	840.8	837.4	832.3	0.8282	0.7723	0.7233	0.6777
x1 = 0.3412	900.9	897.5	894.2	891	0.9436	0.8765	0.8177	0.7653
x1 = 0.404	919.6	915.6	912.8	909	0.9971	0.9244	0.8618	0.8054
x1 = 0.5249	973.2	970.2	965	962.6	1.125	1.042	0.9677	0.9044
x1 = 0.6397	1027	1022.7	1019.6	1016	1.266	1.172	1.089	1.015
x1 = 0.7489	1075.7	1071.6	1067.8	1062.9	1.416	1.312	1.218	1.136
x1 = 0.853	1123.6	1119.2	1114.5	1111.5	1.613	1.484	1.371	1.272
x1 = 0.9031	1150.8	1146.3	1142	1137.5	1.718	1.58	1.46	1.354

CCCCBr [1-bromobutane] + CC1CCCCC1
Settings	mass density, 293.15 K [kg/m3]	mass density, 298.15 K [kg/m3]	mass density, 303.15 K [kg/m3]	mass density, 308.15 K [kg/m3]	viscosity, 293.15 K [mPa·s]	viscosity, 298.15 K [mPa·s]	viscosity, 303.15 K [mPa·s]	viscosity, 308.15 K [mPa·s]
x2 = 0.1014	1218.7	1212.2	1206.3	1198.2	0.6398	0.6033	0.5754	0.5463
x2 = 0.1535	1187.3	1180.4	1174.2	1167.5	0.6402	0.6034	0.5745	0.5458
x2 = 0.2607	1129.8	1123	1118.5	1111	0.6441	0.6066	0.5762	0.5462
x2 = 0.372	1071	1064.8	1059.4	1053.2	0.6465	0.6104	0.578	0.5479
x2 = 0.4293	1041	1035.5	1029.9	1024.4	0.6517	0.6152	0.5826	0.5516
x2 = 0.5473	978.8	973.2	967.8	962.5	0.6581	0.62	0.5854	0.554
x2 = 0.608	946.5	941.2	935.8	930.7	0.6622	0.6235	0.5882	0.5561
x2 = 0.7979	858.3	853.5	849	843.8	0.6877	0.6457	0.6074	0.5721
x2 = 0.8639	830	825.8	821.8	816.5	0.6993	0.6558	0.6166	0.5806
